These results are taken from article PMC8591201, “Anti-Tumor Activity of AZD4547 Against NTRK1 Fusion Positive Cancer Cells Through Inhibition of NTRKs” (Frontiers in Oncology, 2021).

Holding throughout (test): cells
What all share (parameters): Anti-proliferation, 10-point dose response, CellTiter-Glo luminescence (MTT stated for KM12(Luc)), GI50 fitted in Prism

One assay has as its system MKN45. The conditions noted are these: Homo sapiens, MKN-45, 72 h, read-out: GI50 (µM) a. On the procedure:
(§1) To obtain the GI50 value of a substance, cell viability was measured using MTT (G4000, Promega, USA) for KM12(Luc) cell and Cell titer glo (G7572, Promega, USA) for other cell lines. For adherent cells, cells were seeded at 5,000 cells/well in a 96-well plate and treated with a substance one day after cell seeding. For suspension cells, 10,000 cells/well were seeded and the substance was treated after 4 h stabilization of cells. The substance was treated at 10 points of 1:3 serial dilution (0–100 µmol/L) for 72 h. For MTT assay, 15 µL dye solution was added to each well and incubated 4 h at 37°C. 100 µL of solubilization solution was added and followed 1 hr incubation. Absorbance at 570 nm of each well was recorded using EnVision microplate reader (Perkin Elmer). For Cell titer glo assay, Cell titer glo reagent was treated in each well and measured the luminescence by EnVision microplate reader (Perkin Elmer). Viable cells in each well were normalized by using 0.5% DMSO-treated wells (100%). The inhibitor dose−response curve was fitted and GI50 values were calculated using Prism 7.0 software (GraphPad). All assays were performed in duplicate and the standard deviation (SD) was determined from two independent experiments. KM12(Luc) was purchased from the JCRB cell bank. KM12 (Luc) was used within 6 months after purchase and the DNA profiles were confirmed using a short tandem repeat (STR) analysis by the Korean Cell Line Bank. KM12(Luc) cells were maintained in DMEM supplemented with 10% FBS and antibiotics. Parental Ba/F3 cells were purchased from DSMZ and were grown in RPMI1640 supplemented with 10% FBS and antibiotics in the presence of IL3, Transformed Ba/F3 cell lines were grown in the same media without IL3. Cells used in this study were negative for mycoplasma contamination. AN3-CA, HEC1A, U138, 8505C, MKN28, MKN45, A172, A375, Capan-1 HeLa, HEP3B, MCF-7 and MIA-paca-2 cells were maintained in DMEM (Welgene, Korea) supplemented with 10% FBS and antibiotics (Welgene, Korea). Otherwise, all cells were maintained in RPMI (Welgene, Korea) supplemented with 10% FBS and antibiotics (Welgene, Korea). To identify AZD4547 sensitive cell lines other than FGFR-mutant driven cancer cells, GI50 values were determined for AZD4547 against 64 different cancer cell lines, including AN3-CA used as a positive control ( Figure 1A and Table S1 ). […] Also, inhibitory activity of AZD4547 against DDR1 or FLT3 allows suppression of proliferation of U-2-OS and MV4-11 ([43]). Therefore, our attention focused on the inhibitory activity of AZD4547 against KM12(Luc) cell lines which have the TPM3-NTRK1 fusion gene. To exclude the possibility that the anti-proliferation activity of AZD4547 against KM12(Luc) is a common characteristic of FGFR inhibitors, we determined if BGJ398, a representative FGFR inhibitor, is also capable of suppressing proliferation of KM12(Luc) cells ( Figure 1B ).

Another assay relates to A375. The conditions noted are these: Homo sapiens, A-375, 72 h, read-out: GI50 (µM) a. As to the method: as §1
In the next assay the test system is NCI-H1299. Conditions: Homo sapiens, NCI-H1299, 72 h, read-out: GI50 (µM) a. On the procedure:
as §1

The test system of another assay is HuH-7. The conditions noted are these: Homo sapiens, Huh-7, 72 h, read-out: GI50 (µM) a. On the procedure:
as §1

The test system of a further assay is HCT-116. The conditions noted are these: Homo sapiens, HCT-116, 72 h, read-out: GI50 (µM) a. As to the method: as §1
The subject of another assay is SNU484. The conditions noted are these: SNU-484, 72 h, read-out: GI50 (µM) a. As to the method:
as §1

The subject of a further assay is PC-3. The conditions noted are these: Homo sapiens, PC-3, 72 h, read-out: GI50 (µM) a. On the procedure:
as §1

For a further assay, the system named is J82. The conditions noted are these: Homo sapiens, J82, 72 h, read-out: GI50 (µM) a. On the procedure:
as §1

For the next assay, the system named is NCI-H23. The conditions noted are these: Homo sapiens, NCI-H23, 72 h, read-out: GI50 (µM) a. On the procedure:
as §1

Another assay has as its system OVCAR-8. The conditions noted are these: Homo sapiens, OVCAR-8, 72 h, read-out: GI50 (µM) a. On the procedure:
as §1

Another assay concerns U-87-MG. The conditions noted are these: Homo sapiens, U-87 MG, 72 h, read-out: GI50 (µM) a. As to the method: as §1
The test system of another assay is RT-112. The conditions noted are these: Homo sapiens, RT-112, 72 h, read-out: GI50 (µM) a. As to the method:
as §1

On to `COc1cc(CCc2cc(NC(=O)c3ccc(N4C[C@@H](C)N[C@@H](C)C4)cc3)n[nH]2)cc(OC)c1` [AZD4547], for which the concentration for 50% growth inhibition (GI50) (in general, the concentration giving 50% growth inhibition) with MKN45 amounted to 12 µM; in the assay on A375 it was 11.4 µM; in the assay with NCI-H1299 it was 60.6 µM; in the assay on HuH-7, 1.35 µM; in the assay with HCT-116, 7.13 µM; in the assay on SNU484 it was 24.6 µM. The GI50 in the assay with PC-3 is 10.6 µM; with J82, 9.54 µM; in the assay on NCI-H23, 10.8 µM; in the assay with OVCAR-8, 4.97 µM; in the assay on U-87-MG it was 8.94 µM; in the assay on RT-112, 0.42 µM.
